# Reference: patent US20250122218A1, “MODULATORS OF CYSTIC FIBROSIS TRANSMEMBRANE CONDUCTANCE REGULATOR” (Vertex Pharmaceuticals Incorporated, priority 2022, published 2025)
# Biological target: T1, CFTR in F508del/MF-HBE cells (Homo sapiens, UniProt P13569, DEL508-508)
# T1 construct: human bronchial epithelial (HBE) cells derived from CF subjects heterozygous for F508del and a minimal function CFTR mutation; endogenous in cells; host or cells: primary human bronchial epithelial cells from CF subjects (F508del/MF-HBE)
# Experiment: Ussing chamber assay of CFTR-mediated short-circuit currents (identification of potentiator compounds)
# Format: cell-based
# Conditions: potentiator incubated 18-24 hours at 37° C. in combination with 10 μM corrector, in the presence of 20% human serum, CFTR-mediated ISC
# How it was run: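 F508del/MF-HBE cultures were preincubated 18-24 h at 37° C with potentiator plus 10 μM of a fixed corrector compound in 20% human serum; compounds were kept present during measurement. ISC was recorded under voltage clamp (0 mV, 37° C, amiloride apical) and taken as the 20 μM forskolin peak minus the current after inhibitor cocktail.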
# T1 sequence (P13569 with tags, fused parts or gaps DEL508-508): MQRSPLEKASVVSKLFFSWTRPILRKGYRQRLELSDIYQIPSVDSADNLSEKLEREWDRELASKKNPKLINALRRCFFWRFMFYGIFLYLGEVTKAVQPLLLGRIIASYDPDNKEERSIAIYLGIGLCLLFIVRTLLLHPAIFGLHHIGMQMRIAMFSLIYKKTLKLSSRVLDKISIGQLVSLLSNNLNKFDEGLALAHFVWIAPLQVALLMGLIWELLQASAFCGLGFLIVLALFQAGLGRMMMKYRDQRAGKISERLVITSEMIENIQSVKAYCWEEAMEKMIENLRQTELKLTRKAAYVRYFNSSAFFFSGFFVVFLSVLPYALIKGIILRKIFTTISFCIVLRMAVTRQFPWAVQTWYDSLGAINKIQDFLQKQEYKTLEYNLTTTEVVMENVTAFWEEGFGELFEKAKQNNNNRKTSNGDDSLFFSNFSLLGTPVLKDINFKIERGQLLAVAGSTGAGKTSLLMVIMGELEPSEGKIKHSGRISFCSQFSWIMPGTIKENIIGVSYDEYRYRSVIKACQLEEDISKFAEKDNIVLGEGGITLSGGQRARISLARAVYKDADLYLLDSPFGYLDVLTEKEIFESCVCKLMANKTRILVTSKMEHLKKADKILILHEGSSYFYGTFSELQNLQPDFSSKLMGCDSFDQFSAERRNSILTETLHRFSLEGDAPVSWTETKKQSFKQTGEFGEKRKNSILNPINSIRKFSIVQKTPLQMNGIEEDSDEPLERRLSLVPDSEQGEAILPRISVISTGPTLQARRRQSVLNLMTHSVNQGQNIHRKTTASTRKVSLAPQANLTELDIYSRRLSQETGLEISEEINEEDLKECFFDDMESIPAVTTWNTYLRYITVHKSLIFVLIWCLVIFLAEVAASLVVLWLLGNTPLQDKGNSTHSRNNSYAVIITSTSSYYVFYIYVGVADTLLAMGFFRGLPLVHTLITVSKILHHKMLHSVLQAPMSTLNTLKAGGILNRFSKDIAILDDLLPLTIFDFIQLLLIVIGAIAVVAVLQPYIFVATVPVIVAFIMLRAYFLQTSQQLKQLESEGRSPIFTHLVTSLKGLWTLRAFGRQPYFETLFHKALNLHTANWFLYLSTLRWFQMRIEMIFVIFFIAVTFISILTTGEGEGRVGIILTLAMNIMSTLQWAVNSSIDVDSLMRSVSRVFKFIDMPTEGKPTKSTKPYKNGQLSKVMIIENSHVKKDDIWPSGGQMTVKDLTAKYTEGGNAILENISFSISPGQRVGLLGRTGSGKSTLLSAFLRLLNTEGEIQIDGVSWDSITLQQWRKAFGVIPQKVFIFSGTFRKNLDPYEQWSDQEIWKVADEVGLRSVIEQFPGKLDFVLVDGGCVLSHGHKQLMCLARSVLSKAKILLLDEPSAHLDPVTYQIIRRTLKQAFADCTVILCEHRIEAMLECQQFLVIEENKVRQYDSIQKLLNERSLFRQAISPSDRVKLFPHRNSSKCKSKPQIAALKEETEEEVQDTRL
row,SMILES,EC50
1,"Nc1cc(C(F)(F)F)c2nc1-c1nnc(o1)[C@@](O)(C(F)(F)F)CCCCCN(Cc1ccc(F)c(C3CCC3)c1)C2=O [Compound 256, (6R)-17-amino-12-[(3-cyclobutyl-4-fluoro-phenyl)methyl]-6-hydroxy-6,15-bis(trifluoromethyl)-19-oxa-3,4,12,18-tetrazatricyclo [12.3.1.12,5] nonadeca-1(18),2,4,14,16-pentaen-13-one]",< 500 nM
2,"Nc1cc(C(F)(F)F)c2nc1-c1nnc(o1)[C@@](O)(C(F)(F)F)CCCCCN(Cc1cc(F)cc(Cl)c1)C2=O [Compound 257, (6R)-17-amino-12-[(3-chloro-5-fluoro-phenyl)methyl]-6-hydroxy-6,15-bis(trifluoromethyl)-19-oxa-3,4,12,18-tetrazatricyclo [12.3.1.12,5] nonadeca-1(18),2,4,14,16-pentaen-13-one]",< 500 nM
3,"Nc1cc(C(F)(F)F)c2nc1-c1nnc(o1)[C@@](O)(C(F)(F)F)CCCCCN(Cc1cc(F)cc(C(F)(F)F)c1)C2=O [Compound 258, (6R)-17-amino-12-[[3-fluoro-5-(trifluoromethyl)phenyl]methyl]-6-hydroxy-6,15-bis(trifluoromethyl)-19-oxa-3,4,12,18-tetrazatricyclo [12.3.1.12,5] nonadeca-1(18),2,4,14,16-pentaen-13-one]",< 500 nM
4,"Nc1cc(C(F)(F)F)c2nc1-c1nnc(o1)[C@@](O)(C(F)(F)F)CCCCCN(Cc1cc(C3CC3)ccc1F)C2=O [Compound 259, (6R)-17-amino-12-[(5-cyclopropyl-2-fluoro-phenyl)methyl]-6-hydroxy-6,15-bis(trifluoromethyl)-19-oxa-3,4,12,18-tetrazatricyclo [12.3.1.12,5] nonadeca-1(18),2,4,14,16-pentaen-13-one]",< 500 nM
5,"Nc1cc(C(F)(F)F)c2nc1-c1nnc(o1)[C@@](O)(C(F)(F)F)CCCCCN(Cc1cc(C3CCC3)ccc1F)C2=O [Compound 260, (6R)-17-amino-12-[(5-cyclobutyl-2-fluoro-phenyl)methyl]-6-hydroxy-6,15-bis(trifluoromethyl)-19-oxa-3,4,12,18-tetrazatricyclo [12.3.1.12,5] nonadeca-1(18),2,4,14,16-pentaen-13-one]",< 500 nM
6,"Nc1cc(C(F)(F)F)c2nc1-c1nnc(o1)[C@@](O)(C(F)(F)F)CCCCCN(Cc1ccc(OC(F)(F)F)c(F)c1)C2=O [Compound 265, (6R)-17-amino-12-[[3-fluoro-4-(trifluoromethoxy)phenyl]methyl]-6-hydroxy-6,15-bis(trifluoromethyl)-19-oxa-3,4,12,18-tetrazatricyclo [12.3.1.12,5] nonadeca-1(18),2,4,14,16-pentaen-13-one]",< 500 nM
7,"Nc1cc(C(F)(F)F)c2nc1-c1nnc(o1)[C@@](O)(C(F)(F)F)CCCCCN(Cc1ccc(OC(F)F)cc1)C2=O [Compound 266, (6R)-17-amino-12-[[4-(difluoromethoxy)phenyl]methyl]-6-hydroxy-6,15-bis(trifluoromethyl)-19-oxa-3,4,12,18-tetrazatricyclo [12.3.1.12,5] nonadeca-1(18),2,4,14,16-pentaen-13-one]",< 500 nM
8,"Nc1cc(C(F)(F)F)c2nc1-c1nnc(o1)[C@@](O)(C(F)(F)F)CCCCCN(Cc1ccc(OC(F)F)c(F)c1)C2=O [Compound 267, (6R)-17-amino-12-[[4-(difluoromethoxy)-3-fluoro-phenyl]methyl]-6-hydroxy-6,15-bis(trifluoromethyl)-19-oxa-3,4,12,18-tetrazatricyclo [12.3.1.12,5] nonadeca-1(18),2,4,14,16-pentaen-13-one]",< 500 nM
9,"Nc1cc(C(F)(F)F)c2nc1-c1nnc(o1)[C@@](O)(C(F)(F)F)CCCCCN(Cc1ccc(OC(F)F)nc1)C2=O [Compound 268, (6R)-17-amino-12-[[6-(difluoromethoxy)-3-pyridyl]methyl]-6-hydroxy-6,15-bis(trifluoromethyl)-19-oxa-3,4,12,18-tetrazatricyclo [12.3.1.12,5] nonadeca-1(18),2,4,14,16-pentaen-13-one]",< 500 nM
